Earlier results as cited in patent US20190231691A1, “Biopharma Application Of Micell Technology” (Micell Technologies, Inc., priority 2015, published 2019).

Settings: in vivo

CO[C@H]1C[C@@H]2CC[C@@H](C)[C@@](O)(O2)C(=O)C(=O)N2CCCC[C@H]2C(=O)O[C@H]([C@H](C)C[C@@H]2CC[C@@H](O)[C@H](OC)C2)CC(=O)[C@H](C)/C=C(\C)[C@@H](O)[C@@H](OC)C(=O)[C@H](C)C[C@H](C)/C=C/C=C/C=C/1C [rapamycin]
bioavailability: less than 14%
